Results as given in US4642379A, “Intermediates for anticonvulsant agents” (Eli Lilly and Company, priority 1985, dated 1987).

system: not given; experiment: not given; conditions: man; cited from earlier work

In the case of `O=C1NC(=O)C(c2ccccc2)(c2ccccc2)N1` [phenytoin], the “plasma level at which ataxia is obvious” value is listed as 30000 ng/mL.

For `O=C1NC(=O)C(c2ccccc2)(c2ccccc2)N1` [phenytoin], the “plasma level at which lethargy is apparent” value is given as “about 40 mcg/ml”.

For `O=C1NC(=O)C(c2ccccc2)(c2ccccc2)N1` [phenytoin], the “plasma level at which nystagmus is seen” value is given as “around 20 mcg/ml”.

For `O=C1NC(=O)C(c2ccccc2)(c2ccccc2)N1` [phenytoin], the “plasma level at which seizures are controlled” value is given as ≥ 10 µg/mL.

system: electroshock induced convulsion; experiment: electroshock induced convulsion inhibition assay (E.S.); type: in vivo, mice (Cox standard strain albino male); conditions: Mus musculus; oral dose (gavage), mice; 0.1 second, 50 milliampere electroshock through corneal electrodes; at time of optimal response
Protocol: In the elctroshock induced convulsion inhibition assay (E.S.), the compound to be tested was suspended in acacia and administered by gavage to each of ten Cox standard strain albino male mice (18-24 g) at the dose level being investigated. […] The animals were examined and evaluated immediately after the electroshock for the occurrence of clonic, flexor tonic, or extensor tonic convulsions, or death and the ED50 was determined for each compound as the dose which inhibited the occurrence of extensor tonic convulsions in one half of the animals immediately after the electroshock.

Going from `CC(=O)Nc1ccc(C(=O)Nc2c(C)cccc2C)cc1` [Example 1, 4-(Acetylamino)-N-(2,6-dimethylphenyl)benzamide] to `CCC(=O)Nc1ccc(C(=O)Nc2c(C)cccc2C)cc1` [Example 2, N-(2,6-dimethylphenyl)-4-[(1-oxopropyl)amino]benzamide], the ED50 rises from 3.6 mg/kg to 10.5 mg/kg (2.9-fold).

`Cc1cccc(C)c1NC(=O)c1ccc(NC(=O)C(C)C)cc1` [Example 3, N-(2,6-dimethylphenyl)-4-[(2-methyl-1-oxopropyl)amino]benzamide] and `Cc1cccc(C)c1NC(=O)c1ccc(NC(=O)CN(C)C)cc1` [Example 12, 4-([(Dimethylamino)acetyl]amino)-N-(2,6-dimethylphenyl)benzamide] are within 1.5-fold of each other in ED50: 8.2 mg/kg for the first, 8 mg/kg for the second.

First: CC(=O)Nc1ccc(C(=O)N[C@@H](C)c2ccccc2)cc1 [Example 4, (S)-4-(acetylamino)-N-(1-phenylethyl)benzamide]
Second: CC(=O)Nc1ccc(C(=O)NC(C)c2ccccc2)cc1 (stereo not drawn) [Example 6, 4-(Acetylamino)-N-(1-phenylethyl)benzamide]
The ED50 of the first is 2.4-fold lower: 22.2 mg/kg for the first, 54 mg/kg for the second.

`CC(=O)Nc1ccc(C(=O)Nc2c(C)cccc2C)cc1C` [Example 11, 4-(Acetylamino)-N-(2,6-dimethylphenyl)-3-methylbenzamide] and `CCNCC(=O)Nc1ccc(C(=O)Nc2c(C)cccc2C)cc1` [Example 23, N-(2,6-Dimethylphenyl)-4-([(ethylamino)acetyl]amino)benzamide] are within 1.5-fold of each other in ED50: 4.5 mg/kg for the first, 3.2 mg/kg for the second.

Going from `CNCC(=O)Nc1ccc(C(=O)Nc2c(C)cccc2C)cc1.O=C(O)C(=O)O` [Example 13, N-(2,6-dimethylphenyl)-4-([(methylamino)acetyl]amino)benzamide ethanedioate] to `CCN(CC)CC(=O)Nc1ccc(C(=O)Nc2c(C)cccc2C)cc1.O=C(O)C(=O)O` [Example 14, 4-([(Diethylamino)acetyl]amino)-N-(2,6-dimethylphenyl)benzamide ethanedioate], the ED50 falls from 6.3 mg/kg to 3.6 mg/kg (1.8-fold).

First: Cc1cccc(C)c1NC(=O)c1ccc(NC(=O)CN2CCCCC2)cc1 [Example 15, N-[4-([(2,6-Dimethylphenyl)amino]carbonyl)phenyl]-1-piperidineacetamide]
Second: Cc1cccc(C)c1NC(=O)c1ccc(NC(=O)CN2CCCCCC2)cc1 [Example 21, N-[4-([(2,6-Dimethylphenyl)amino]carbonyl)phenyl]hexahydro-1-H-azepine-1-acetamide]
The ED50 of the first is 1.9-fold higher: 9.5 mg/kg for the first, 5.1 mg/kg for the second.

First: Cc1cccc(C)c1NC(=O)c1ccc(NC(=O)CN2CCCC2)cc1 [Example 16, N-[4-([(2,6-Dimethylphenyl)amino]carbonyl)phenyl]-1-pyrrolidineacetamide]
Second: Cc1cccc(C)c1NC(=O)c1ccc(NC(=O)CCN2CCCC2)cc1 [Example 19, N-[4-([(2,6-Dimethylphenyl)amino]carbonyl)phenyl]-1-pyrrolidinepropanamide]
The ED50 of the first is 7.2-fold lower: 3.75 mg/kg for the first, 26.9 mg/kg for the second.

Going from `Cc1cccc(C)c1NC(=O)c1ccc(NC(=O)CN2CCN(C)CC2)cc1` [Example 17, N-[4-([(2,6-Dimethylphenyl)amino]carbonyl)phenyl]-4-methyl-1-piperazineacetamide] to `Cc1cccc(C)c1NC(=O)c1ccc(NC(=O)CN2CCOCC2)cc1` [Example 18, N-[4-([(2,6-Dimethylphenyl)amino]carbonyl)phenyl]-4-morpholineacetamide], the ED50 falls from > 112 mg/kg to 17.5 mg/kg.

Going from `Cc1cccc(C)c1NC(=O)c1ccc(NC(=O)C(C)N2CCCC2)cc1` (stereo not drawn) [Example 20] to `CCNCC(=O)Nc1ccc(C(=O)NC(C)c2ccccc2)cc1.Cl` (stereo not drawn) [Example 22, 4-([(Ethylamino)acetyl]amino)-N-(1-phenylethyl)benzamide hydrochloride], the ED50 falls from 42.5 mg/kg to 28 mg/kg (1.5-fold).

same assay, conditions: oral dose (gavage), mice; 0.1 second, 50 milliampere electroshock through corneal electrodes; at time of optimal response

In the case of `CC(=O)Nc1ccc(C(=O)N[C@H](C)c2ccccc2)cc1` [Example 5], the “Electroshock ED50 (mg/kg)” value is reported as “ca. 100 mg/kg”.

same assay, conditions: time between oral dosing and electroshock

For `CC(=O)Nc1ccc(C(=O)N[C@H](C)c2ccccc2)cc1` [Example 5], the “Time After dosing (minutes) providing an optimal response” value was 60 min.
